# Test system: colistin (polymyxin E, or PME) resistant bacterium S. maltophilia
# Experiment: Spot test on lawn of colistin resistant bacterium
# Format: cell-based
# Conditions: 10 μL spotted, 37° C., 2 days
smiles,measurement,value
O=C([O-])CC(O)(CC(=O)[O-])C(=O)[O-].[Na+].[Na+].[Na+] [Trisodium citrate],activity / kill of S. maltophilia lawn,did not work as well as CTAC
